Laboratory results reported in US20210330788A1, “USES OF ANTI-BCMA CHIMERIC ANTIGEN RECEPTORS” (CELGENE CORPORATION, priority 2018, published 2021).

System: human multiple myeloma (RPMI-8226) tumors
Assay: Sub-cutaneous human multiple myeloma (RPMI-8226) tumor model in NSG mice (FIGS. 8A and 8B)
Format: in vivo, NOD scid gamma (NSG) mice
Settings: ˜100mm^3 tumors; 10^7 CAR T cells or Bortezomib; two independent experiments
Protocol: Hyperactivation and increased apoptosis could negatively impact CAR T cell persistence in patients and ultimately clinical efficacy. The anti-tumor function of anti-BCMA02 CAR T cells and anti-BCMA10 CAR T cells was examined in a mouse tumor model. NOD-scid gamma (NSG) mice with ˜100mm^3 experimental sub-cutaneous human multiple myeloma (RPMI-8226) tumors were treated with 10^7 anti-BCMA02 CAR T cells, 10^7 anti-BCMA10 CAR T cells, or Bortezomib (VELCADE®). RPMI-8226 growth was monitored with calipers.

Question: How did the “RPMI-8226 tumor growth (calipers)” value turn out when `CC(C)C[C@H](NC(=O)[C@H](Cc1ccccc1)NC(=O)c1cnccn1)B(O)O` [Bortezomib] was run?
Answer: controlled tumor growth
